# Molecular target: Tyrosine-protein kinase Lck (Homo sapiens, UniProt P06239)
# Sequence (P06239 whole entry): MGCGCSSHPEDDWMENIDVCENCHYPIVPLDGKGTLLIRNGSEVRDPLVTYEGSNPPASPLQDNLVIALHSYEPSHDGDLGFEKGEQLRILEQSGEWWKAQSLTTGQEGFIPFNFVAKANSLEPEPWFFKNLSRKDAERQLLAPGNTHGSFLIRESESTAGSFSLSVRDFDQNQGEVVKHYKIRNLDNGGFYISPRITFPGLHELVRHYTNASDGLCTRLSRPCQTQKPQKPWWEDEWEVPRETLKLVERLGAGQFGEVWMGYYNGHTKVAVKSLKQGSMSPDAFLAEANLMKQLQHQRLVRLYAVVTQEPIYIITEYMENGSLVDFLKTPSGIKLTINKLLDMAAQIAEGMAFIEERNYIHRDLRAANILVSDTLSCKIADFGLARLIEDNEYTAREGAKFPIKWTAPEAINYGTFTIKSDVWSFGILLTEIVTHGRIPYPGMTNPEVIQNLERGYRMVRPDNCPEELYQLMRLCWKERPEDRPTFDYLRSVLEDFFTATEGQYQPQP
row,IC50 [µM],SMILES
1,200,COc1ccc(/C=C/c2cccnc2)cc1OC
2,15.7,O=c1cc(-c2ccc(O)cc2)oc2cccc(O)c12
3,467,COc1cc(-c2cc(=O)c3cc(O)ccc3o2)cc(OC)c1O[Si](C)(C)C(C)(C)C
4,100,Nc1ccc(-c2cc(=O)c3ccc(O)cc3o2)cc1
5,89.2,O=C1c2ccccc2C(=O)c2cc(O)ccc21 [2-HYDROXYANTHRAQUINONE]
6,> 3570,O=C1c2ccccc2C(=O)c2c(O)cccc21 [1-HYDROXYANTHRAQUINONE]
7,109,CC(C)(C)[Si](C)(C)Oc1ccc(-c2cc(=O)c3cc(O)ccc3o2)cc1
8,185,O=c1cc(-c2cccc(O)c2)oc2c(O)c(O)ccc12
9,> 1700,COc1cc(-c2cc(=O)c3ccc(OC(C)=O)cc3o2)cc(OC)c1O[Si](C)(C)C(C)(C)C
10,11.8,O=c1cc(-c2ccc(O)cc2)oc2ccc(O)cc12
11,> 2150,COc1cc(-c2cc(=O)c3ccc(OC)c(OC)c3o2)cc(OC)c1OC
12,290,COc1cc(-c2cc(=O)c3ccc(O)c(O)c3o2)cc(OC)c1OC
13,315,O=c1cc(-c2cccc(O)c2)oc2cccc(O)c12
14,26.8,COc1cc(-c2cc(=O)c3ccccc3o2)cc(OC)c1O
15,121,COc1cc(-c2cc(=O)c3ccc(O)c(O)c3o2)cc(OC)c1O
16,> 2250,COc1cc(-c2cc(=O)c3ccc(OC(C)=O)cc3o2)cc(OC)c1O
17,157,O=c1cc(-c2cccc(O)c2)oc2ccc(O)cc12
18,281,COc1cc(O)c2c(=O)cc(-c3ccc(O)cc3)oc2c1 [GENKWANIN]
19,1270,COc1cc(-c2cc(=O)c3ccc(O)cc3o2)cc(OC)c1O

row,IC50 [µM],SMILES
1,> 1510,COc1cc(-c2cc(=O)c3ccc(OC(C)=O)c(OC(C)=O)c3o2)cc(OC)c1O[Si](C)(C)C(C)(C)C
2,109,CC(C)(C)[Si](C)(C)Oc1ccc(-c2cc(=O)c3ccc(O)cc3o2)cc1
3,336,O=c1cc(-c2ccccc2)oc2cc(O)ccc12 [7-HYDROXYFLAVONE]
4,1,Nc1ccc(-c2cc(=O)c3cc(O)ccc3o2)cc1
5,127,COc1cc(-c2cc(=O)c3cc(O)ccc3o2)cc(OC)c1O
6,> 3000,CC(=O)Oc1ccc2c(c1)C(=O)c1ccccc1C2=O
7,> 2340,COc1ccc2c(=O)cc(-c3cc(OC)c(OC)c(OC)c3)oc2c1
8,70,COc1ccc(/C=N/Nc2ccccc2)cc1OC
9,19.7,O=c1cc(-c2ccccc2)oc2cc(O)cc(O)c12 [CHRYSIN]
10,> 2810,COc1cc(O)c2c(c1)C(=O)c1cc(C)cc(O)c1C2=O [PHYSCION]
11,2030,O=c1cc(-c2ccc(OCc3ccccc3)cc2)oc2cc(O)ccc12
12,787,O=c1cc(-c2ccc(O)cc2)oc2cc(O)ccc12
13,> 2440,COc1cc(-c2cc(=O)c3ccc(O)cc3o2)cc(OC)c1OC
14,60.9,COc1cc(-c2cc(=O)c3cc(O)ccc3o2)cc(OC)c1OC
15,315,"O=c1cc(-c2ccccc2)oc2c(O)c(O)ccc12 [7,8-DIHYDROXYFLAVONE]"
16,296,O=c1c(O)c(-c2ccccc2)oc2cc(O)cc(O)c12 [GALANGIN]
17,99.3,O=c1c(O)c(-c2cc(O)cc(O)c2)oc2cc(O)cc(O)c12
18,> 1850,Cc1cc(O)c2c(c1)C(=O)c1cc(O[C@@H]3O[C@H](CO)[C@@H](O)[C@H](O)[C@H]3O)cc(O)c1C2=O
19,39.3,O=c1cc(-c2cccc(O)c2)oc2cc(O)ccc12

row,SMILES,IC50 [µM]
1,COc1cc(-c2oc3cc(O)cc(O)c3c(=O)c2O)cc(OC)c1O [SYRINGETIN],57.8
2,O=c1cc(-c2ccc(O)c(O)c2)oc2cc(O)cc(O)c12 [LUTEOLIN],34.9
3,O=c1c(O)c(-c2ccc(O)c(O)c2)oc2cc(O)cc(O)c12 [QUERCETIN],132

# Molecular target: Epidermal growth factor receptor (Homo sapiens, UniProt P00533)
# Sequence (P00533 whole entry): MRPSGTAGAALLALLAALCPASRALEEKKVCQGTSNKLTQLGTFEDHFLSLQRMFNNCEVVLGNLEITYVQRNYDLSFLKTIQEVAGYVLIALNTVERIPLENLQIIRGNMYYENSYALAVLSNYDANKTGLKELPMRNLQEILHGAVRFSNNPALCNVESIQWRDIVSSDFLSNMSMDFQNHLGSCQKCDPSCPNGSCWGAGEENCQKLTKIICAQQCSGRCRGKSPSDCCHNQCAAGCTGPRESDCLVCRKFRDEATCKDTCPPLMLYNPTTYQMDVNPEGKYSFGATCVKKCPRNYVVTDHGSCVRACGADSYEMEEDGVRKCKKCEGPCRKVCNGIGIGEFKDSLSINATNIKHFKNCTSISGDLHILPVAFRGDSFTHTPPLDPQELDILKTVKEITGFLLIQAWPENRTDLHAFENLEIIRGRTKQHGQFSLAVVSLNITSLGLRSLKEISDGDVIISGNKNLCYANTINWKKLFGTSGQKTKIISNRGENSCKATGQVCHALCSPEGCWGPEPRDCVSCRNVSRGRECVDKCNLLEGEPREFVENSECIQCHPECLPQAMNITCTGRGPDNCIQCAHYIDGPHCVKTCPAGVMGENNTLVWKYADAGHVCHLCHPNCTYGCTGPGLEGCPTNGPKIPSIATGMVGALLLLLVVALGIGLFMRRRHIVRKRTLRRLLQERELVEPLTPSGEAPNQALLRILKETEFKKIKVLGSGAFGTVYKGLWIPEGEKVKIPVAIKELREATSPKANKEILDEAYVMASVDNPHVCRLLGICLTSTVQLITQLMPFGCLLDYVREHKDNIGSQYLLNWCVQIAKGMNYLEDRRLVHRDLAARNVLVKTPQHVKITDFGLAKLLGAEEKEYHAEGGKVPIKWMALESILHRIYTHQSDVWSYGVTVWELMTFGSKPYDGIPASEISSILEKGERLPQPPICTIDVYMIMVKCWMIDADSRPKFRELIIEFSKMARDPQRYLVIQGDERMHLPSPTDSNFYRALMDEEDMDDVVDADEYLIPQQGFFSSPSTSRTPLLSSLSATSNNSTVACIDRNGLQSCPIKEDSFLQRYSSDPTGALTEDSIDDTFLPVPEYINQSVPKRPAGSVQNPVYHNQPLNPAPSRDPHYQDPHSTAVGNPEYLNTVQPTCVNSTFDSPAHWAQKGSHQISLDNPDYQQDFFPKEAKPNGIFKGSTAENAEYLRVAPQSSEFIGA
# Description: Inhibition of EGFR in human A431 cells
row,IC50 [µM],SMILES
1,2,N#C/C(=C/c1ccc(O)c(O)c1)C(=O)NC1CCCCC1
2,6,COc1cc(C(C#N)=C(C#N)C#N)cc(O)c1O
3,2,N#C/C(=C\c1ccc(O)c(O)c1)C(=O)c1ccc([N+](=O)[O-])cc1
4,10.5,O=c1c(O)c(-c2ccc(O)cc2)oc2cc(O)cc(O)c12 [KAEMPFEROL]
5,10,N#CC(C#N)=C(C#N)c1cc(O)cc(O)c1
6,0.1,N#C/C(=C/c1ccc(O)c(O)c1)C(=O)NCCCCc1ccccc1
7,0.6,N#C/C(=C\c1ccc(O)c(O)c1)C(=O)c1ccc(F)cc1
8,0.0105,O=C(O)c1cc(N(Cc2ccccc2O)Cc2cc(O)ccc2O)ccc1O [LAVENDUSTIN A]
9,600,N#CC(C#N)=C(C#N)c1ccc(O)cc1
10,900,COc1cc(C(C#N)=C(C#N)C#N)cc(OC)c1O
11,0.0252,O=C(O)c1cc(N(Cc2cc(O)ccc2O)Cc2cc(O)ccc2O)ccc1O
12,0.524,O=C(O)c1ccc(O)c(N(Cc2ccccc2O)Cc2cc(O)ccc2O)c1
13,10,N#CC(C#N)=C(C#N)c1ccc(O)c(O)c1
14,106,COc1ccc(-c2coc3cc(O)cc(O)c3c2=O)cc1 [BIOCHANIN]
15,1,N#C/C(=C\c1ccc(O)c(O)c1)C(=O)c1ccccc1
16,0.9,Cc1ccc(C(=O)/C(C#N)=C/c2ccc(O)c(O)c2)cc1
17,72.4,O=C(O)c1ccc(O)cc1 [PARABEN]
18,600,N#CC(C#N)=C(C#N)c1ccc(C=O)cc1

row,IC50 [µM],SMILES
1,14.1,COc1cc(O)c2c(=O)c(-c3ccc(O)cc3)coc2c1 [PRUNETIN]
2,0.4,N#C/C(=C\c1ccc(O)c(O)c1)C(=O)c1ccc(O)c(O)c1
3,0.333,COc1c(O)cc(O)c2c(=O)c(-c3ccc(O)cc3)coc12 [PSI-TECTORIGENIN]
4,> 231,O=c1c(-c2ccc(O)cc2)coc2cc(O[C@@H]3O[C@H](CO)[C@@H](O)[C@H](O)[C@H]3O)cc(O)c12 [GENISTIN]
5,2,N#C/C(=C\c1ccc(O)c(O)c1)C(=O)c1ccccc1Cl
6,1.37,O=C(O)c1cc(N(Cc2ccccc2O)Cc2ccccc2O)ccc1O [LAVENDUSTIN B]
7,3,N#CC(C#N)=C(N)/C(C#N)=C/c1ccc(O)c(O)c1
8,3,N#CC(C#N)=C(C#N)c1cc(O)c(O)c(O)c1
9,10,N#C/C(=C/c1ccc(O)c(O)c1)C(=O)Nc1ccccc1Cl
10,30,N#C/C(=C\c1ccc(O)c(O)c1)C(=O)O
11,141,COc1ccc(-c2cc(=O)c3c(O)cc(O)cc3o2)cc1 [ACACETIN]
12,225,O=c1cc(-c2ccccc2)oc2ccccc12 [FLAVONE]
13,500,N#CC(C#N)=C(O)c1ccc(O)cc1
14,1000,O=C(O)/C=C/c1ccc(O)c(O)c1 [CAFFEIC ACID]
15,400,N#CC(C#N)=C(C#N)c1cccc(O)c1
16,> 393,O=c1c(-c2ccc(O)cc2)coc2cc(O)ccc12 [DAIDZEIN]
17,10,N#CC(C#N)=C(O)c1cc(O)c(O)c(O)c1
18,20,N#C/C(=C\c1cc(O)ccc1O)C(=O)O

row,SMILES,IC50 [µM]
1,C/C(=C\c1ccc(O)c(O)c1)[N+](=O)[O-],9
2,O=[N+]([O-])/C=C/c1ccc(O)c(O)c1,9
3,COc1cc(/C=C/[N+](=O)[O-])ccc1O,8
4,N#C/C(=C\c1ccc(O)cc1)C(=O)O [alpha-CYANO-4-HYDROXYCINNAMIC ACID],200
5,N#CC(C#N)=C(N)/C(C#N)=C/c1ccc(O)cc1,0.1
6,O=P(O)(O)C(O)c1ccc2ccccc2c1 (centres undefined),200
7,N#C/C(=C\c1ccc(O)c(O)c1)C(=O)NCCc1ccccc1,0.9
